Patent US20220306695A1, “COMPSTATIN ANALOGUES AND THEIR MEDICAL USES” (priority 2019, published 2022)
pIC50: −log10 of the molar value. Like-named read-outs stand apart in the source and are kept apart here. Starred links: 1 amine or outer side, 2 acyl side, 3 side chain; linkers in the order of their positions; H or OH if unused. Positions of bridges follow the written chain, without caps; N, C: chain ends. Non-standard residues stand in square brackets, D forms with d. Residues, ends and D or L forms follow the SMILES beside them. Groups on a side chain read outwards from the residue. *: point of attachment. C20 diacid = O=C(O)CCCCCCCCCCCCCCCCCCC(=O)*; Trp(1-Me) = Cn1cc(C[C@H](N)C(=O)O)c2ccccc21; Abu(4-yl) = O=C([C@H](CC[*:3])N[*:1])[*:2]; C18 diacid = O=C(O)CCCCCCCCCCCCCCCCC(=O)*; γGlu = O=C(O)[C@H](CCC(=O)[*:2])N[*:1]; AEEA = NCCOCCOCC(=O)O; Sar = CNCC(=O)O

Test system: classical complement pathway
Test: In vitro haemolysis assay (inhibition of classical complement pathway)
Assay type: cell-based, human
Details: for IC50: Table 3
How it was run: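 Serially diluted compound (9 points) was preincubated 15 min at room temperature with diluted human serum, titrated per batch to give 70-90% maximal haemolysis, in Tris/casein buffer pH 7.4 with Mg2+/Ca2+. Antibody-sensitized sheep erythrocytes were then added for 30 min at 37° C, and the reaction was stopped with EDTA. Haemolysis was read at A405, with IC50 from 4PL fit.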

[1] = human serum, sensitized sheep red blood cells, read-out: IC50[nM], in vitro analysis of inhibition of hemolysis
[2] = cells that print μM, read-out: IC50, in vitro analysis of inhibition of hemolysis

| SMILES | IC50 [1] [nM] | IC50 [2] [nM] | pIC50 (Table 4, valine 3 versus isoleucine 3 pairs, read-out: CP hemolysis IC50) |
| --- | --- | --- | --- |
| CC[C@H](C)[C@@H]1NC(=O)[C@@H](NC(=O)[C@H](Cc2ccccc2)NC(=O)[C@H](CCC(=O)O)NC(=O)[C@H](CO)NC(C)=O)CCSC[C@@H](C(=O)N(C)CC(=O)N[C@@H](CCC(=O)O)C(=O)NCCOCCOCC(=O)NCCOCCOCC(=O)N[C@@H](CCCCNC(=O)CC[C@H](NC(=O)CNC(=O)CC[C@H](NC(=O)CCCCCCCCCCCCCCCCC(=O)O)C(=O)O)C(=O)O)C(N)=O)NC(=O)[C@H](CCCNC(=N)N)NC(=O)[C@H](Cc2c[nH]cn2)NC(=O)[C@H](CCC(=O)O)NC(=O)CN(C)C(=O)[C@H](Cc2c[nH]c3ccccc23)NC(=O)[C@H](CC(=O)O)NC(=O)[C@H](CCC(N)=O)NC(=O)[C@H](Cc2cn(C)c3ccccc23)NC1=O [Compound 164, Ac-SEFhC(1)I[1-Me-Trpp]QDW[Sar]EHRA(1)[Sar]E[Peg3][Peg3]-K([17-carboxy-heptadecanoyl][γGlu]G[γGlu])-NH2] (Ac-SEF[Abu(4-yl)]I[Trp(1-Me)]QDW[Sar]EHRC[Sar]E[AEEA][AEEA]K([γGlu-Gly-γGlu-C18 diacid])-NH2; thioether 4-14) | < 100 |  |  |
| CC[C@H](C)[C@H](NC(C)=O)C(=O)N[C@H]1CSSC[C@@H](C(=O)N[C@H](C(=O)N[C@@H](CCC(=O)O)C(=O)NCC(=O)N[C@@H](CCCCNC(=O)COCCOCCNC(=O)COCCOCCNC(=O)CC[C@H](NC(=O)CCCCCCCCCCCCCCCCCCC(=O)O)C(=O)O)C(N)=O)[C@@H](C)O)NC(=O)[C@H](CCCNC(=N)N)NC(=O)[C@H](Cc2c[nH]cn2)NC(=O)[C@H](CCC(=O)O)NC(=O)CNC(=O)[C@H](Cc2c[nH]c3ccccc23)NC(=O)[C@H](CC(=O)O)NC(=O)[C@H](CCC(N)=O)NC(=O)[C@H](Cc2c[nH]c3ccccc23)NC(=O)[C@H]([C@@H](C)CC)NC1=O [Compound 98] (Ac-ICIWQDWGEHRCTEGK([AEEA-AEEA-γGlu-C20 diacid])-NH2; disulfide 2-12) | < 500 |  |  |
| CC[C@H](C)[C@@H]1NC(=O)[C@@H](NC(=O)[C@H](Cc2ccccc2)NC(C)=O)CSSC[C@@H](C(=O)N[C@H](C(=O)NCC(=O)N[C@@H](C)C(=O)N[C@@H](CCC(=O)O)C(N)=O)[C@@H](C)O)NC(=O)[C@H](CCCNC(=N)N)NC(=O)[C@H](Cc2c[nH]cn2)NC(=O)[C@H](CCC(=O)O)NC(=O)CNC(=O)[C@H](Cc2c[nH]c3ccccc23)NC(=O)[C@H](CC(=O)O)NC(=O)[C@H](CCC(N)=O)NC(=O)[C@H](Cc2c[nH]c3ccccc23)NC1=O [Compound 43] (Ac-FCIWQDWGEHRCTGAE-NH2; disulfide 2-12) | < 100 |  |  |
| CC[C@H](C)[C@@H]1NC(=O)[C@@H](NC(=O)[C@H](Cc2ccccc2)NC(C)=O)CSSC[C@@H](C(=O)N[C@H](C(N)=O)[C@@H](C)O)NC(=O)[C@H](CCCNC(=N)N)NC(=O)[C@H](Cc2c[nH]cn2)NC(=O)[C@H](CCC(=O)O)NC(=O)CNC(=O)[C@H](Cc2c[nH]c3ccccc23)NC(=O)[C@H](CC(=O)O)NC(=O)[C@H](CCC(N)=O)NC(=O)[C@H](Cc2c[nH]c3ccccc23)NC1=O [Compound 23] (Ac-FCIWQDWGEHRCT-NH2; disulfide 2-12) | < 100 |  |  |
| CC[C@H](C)[C@@H]1NC(=O)[C@@H](NC(=O)[C@H](Cc2ccc(O)cc2)NC(=O)[C@H](C)NC(=O)[C@H](CO)NC(=O)CNC(=O)[C@H](CCC(=O)O)NC(C)=O)CSCC[C@@H](C(=O)N(C)CC(=O)N[C@@H](CCC(=O)O)C(=O)N[C@@H](CCCCN)C(=O)N[C@@H](CCC(=O)N[C@@H](CCCCNC(=O)COCCOCCNC(=O)COCCOCCNC(=O)CC[C@H](NC(=O)CCCCCCCCCCCCCCCCC(=O)O)C(=O)O)C(N)=O)C(=O)O)NC(=O)[C@H](CCCNC(=N)N)NC(=O)[C@H](Cc2c[nH]cn2)NC(=O)[C@H](CCC(=O)O)NC(=O)CNC(=O)[C@H](Cc2c[nH]c3ccccc23)NC(=O)[C@H](CC(=O)O)NC(=O)[C@H](CCC(N)=O)NC(=O)[C@H](Cc2cn(C)c3ccccc23)NC1=O [Compound 159, Ac-EGSAYA(1)I[1-Me-Trp]QDWGEHRhC(1)[Sar]EK[γGlu]-K([17-carboxy-heptadecanoyl][γGlu][Peg3][Peg3])-NH2] (Ac-EGSAYCI[Trp(1-Me)]QDWGEHR[Abu(4-yl)][Sar]EK[γGlu]K([AEEA-AEEA-γGlu-C18 diacid])-NH2; thioether 6-16) | < 100 |  |  |
| CC[C@H](C)[C@H](NC(C)=O)C(=O)N[C@H]1CSSC[C@@H](C(=O)N[C@H](C(N)=O)[C@@H](C)O)NC(=O)[C@H](CCCNC(=N)N)NC(=O)[C@H](Cc2c[nH]cn2)NC(=O)[C@H](Cc2c[nH]cn2)NC(=O)CNC(=O)[C@H](Cc2c[nH]c3ccccc23)NC(=O)[C@H](CC(=O)O)NC(=O)[C@H](CCC(N)=O)NC(=O)[C@H](C(C)C)NC(=O)[C@H](C(C)C)NC1=O [Ac-compstatin, reference compound] |  | > 5000 |  |
| CC[C@H](C)[C@H](NC(C)=O)C(=O)N[C@H]1CSSC[C@@H](C(=O)N[C@H](C(N)=O)[C@@H](C)O)NC(=O)[C@H](CO)NC(=O)[C@H](Cc2c[nH]cn2)NC(=O)[C@H](CCC(=O)O)NC(=O)CNC(=O)[C@H](Cc2c[nH]c3ccccc23)NC(=O)[C@H](CC(=O)O)NC(=O)[C@H](CCC(N)=O)NC(=O)[C@H](Cc2c[nH]c3ccccc23)NC(=O)[C@H]([C@@H](C)CC)NC1=O [Compound 20] (Ac-ICIWQDWGEHSCT-NH2; disulfide 2-12) | < 100 |  | 7.23 |
| CC[C@H](C)[C@@H]1NC(=O)[C@@H](NC(=O)[C@H](Cc2ccc(O)cc2)NC(=O)[C@H](C)NC(=O)[C@H](CO)NC(=O)[C@H](CO)NC(=O)[C@H](CCC(=O)O)NC(C)=O)CSSC[C@@H](C(=O)N[C@H](C(N)=O)[C@@H](C)O)NC(=O)[C@H](CCCNC(=N)N)NC(=O)[C@H](Cc2c[nH]cn2)NC(=O)[C@H](CCC(=O)O)NC(=O)CNC(=O)[C@H](Cc2c[nH]c3ccccc23)NC(=O)[C@H](CC(=O)O)NC(=O)[C@H](CCC(N)=O)NC(=O)[C@H](Cc2c[nH]c3ccccc23)NC1=O [Compound 10] (Ac-ESSAYCIWQDWGEHRCT-NH2; disulfide 6-16) | < 100 |  |  |
| CC[C@H](C)[C@@H]1NC(=O)[C@@H](NC(=O)[C@H](Cc2ccccc2)NC(=O)[C@H](CCC(=O)O)NC(=O)[C@H](CO)NC(C)=O)CSCC[C@@H](C(=O)N[C@H](C(=O)N[C@@H](CCC(=O)O)C(=O)NCC(=O)N[C@@H](CCC(=O)O)C(=O)NCCOCCOCC(=O)N[C@@H](CCC(=O)O)C(=O)N[C@@H](CO)C(=O)N[C@@H](CCCCNC(=O)CC[C@H](NC(=O)CCCCCCCCCCCCCCCCC(=O)O)C(=O)O)C(=O)O)[C@@H](C)O)NC(=O)[C@H](CCCNC(=N)N)NC(=O)[C@H](Cc2c[nH]cn2)NC(=O)[C@H](CCC(=O)O)NC(=O)CNC(=O)[C@H](Cc2c[nH]c3ccccc23)NC(=O)[C@H](CC(=O)O)NC(=O)[C@H](CCC(N)=O)NC(=O)[C@H](Cc2cn(C)c3ccccc23)NC1=O [Compound 163, Ac-SEFA(1)I[1-Me-Trp]QDWGEHRhC(1)TEGE[Peg3]ES-K([17-carboxy-heptadecanoyl][γGlu])-OH] (Ac-SEFCI[Trp(1-Me)]QDWGEHR[Abu(4-yl)]TEGE[AEEA]ESK([γGlu-C18 diacid])-OH; thioether 4-14) | < 100 |  |  |
| CC[C@H](C)[C@H](NC(C)=O)C(=O)N[C@H]1CSSC[C@@H](C(=O)N[C@H](C(N)=O)[C@@H](C)O)NC(=O)[C@H](CCCNC(=N)N)NC(=O)[C@H](Cc2c[nH]cn2)NC(=O)[C@H](CCC(=O)O)NC(=O)CNC(=O)[C@H](Cc2c[nH]c3ccccc23)NC(=O)[C@H](CCCCN)NC(=O)[C@H](CCC(N)=O)NC(=O)[C@H](Cc2c[nH]c3ccccc23)NC(=O)[C@H]([C@@H](C)CC)NC1=O [Compound 7] (Ac-ICIWQKWGEHRCT-NH2; disulfide 2-12) | < 1000 |  |  |
| CC[C@H](C)[C@H](N)C(=O)N[C@H]1CSSC[C@@H](C(=O)N[C@H](C(N)=O)[C@@H](C)O)NC(=O)[C@H](CCCN=C(N)N)NC(=O)[C@H](Cc2cnc[nH]2)NC(=O)[C@H](Cc2cnc[nH]2)NC(=O)CNC(=O)[C@H](Cc2c[nH]c3ccccc23)NC(=O)[C@H](CC(=O)O)NC(=O)[C@H](CCC(N)=O)NC(=O)[C@H](C(C)C)NC(=O)[C@H](C(C)C)NC1=O [Compstatin] |  | > 5000 |  |
| CC[C@H](C)[C@@H]1NC(=O)[C@@H](NC(=O)[C@H](Cc2ccc(O)cc2)NC(=O)[C@H](C)NC(=O)[C@H](CO)NC(=O)CNC(=O)[C@H](CCC(=O)O)NC(C)=O)CSSC[C@@H](C(=O)N(C)CC(=O)N[C@@H](CCC(=O)O)C(N)=O)NC(=O)[C@H](CCCNC(=N)N)NC(=O)[C@H](Cc2c[nH]cn2)NC(=O)[C@H](CCC(=O)O)NC(=O)CNC(=O)[C@H](Cc2c[nH]c3ccccc23)NC(=O)[C@H](CCC(=O)O)NC(=O)[C@H](CCC(N)=O)NC(=O)[C@H](Cc2cn(C)c3ccccc23)NC1=O [Compound 70] (Ac-EGSAYCI[Trp(1-Me)]QEWGEHRC[Sar]E-NH2; disulfide 6-16) | < 100 |  |  |
| CC[C@H](C)[C@H](NC(=O)[C@H](C)NC(=O)[C@H](CO)NC(=O)[C@H](CO)NC(=O)[C@H](CCC(=O)O)NC(C)=O)C(=O)N[C@H]1CSSC[C@@H](C(=O)N[C@H](C(N)=O)[C@@H](C)O)NC(=O)[C@H](CCCNC(=N)N)NC(=O)[C@H](Cc2c[nH]cn2)NC(=O)[C@H](C)NC(=O)CNC(=O)[C@H](Cc2c[nH]c3ccccc23)NC(=O)[C@H](CC(=O)O)NC(=O)[C@H](CCC(N)=O)NC(=O)[C@H](Cc2c[nH]c3ccccc23)NC(=O)[C@H]([C@@H](C)CC)NC1=O [Compound 46] (Ac-ESSAICIWQDWGAHRCT-NH2; disulfide 6-16) | < 100 |  |  |
| CC[C@H](C)[C@@H]1NC(=O)[C@@H](NC(=O)[C@H](Cc2ccccc2)NC(=O)[C@H](CCC(=O)O)NC(C)=O)CSSC[C@@H](C(=O)N[C@@H](CCC(=O)O)C(=O)N[C@@H](CO)C(N)=O)NC(=O)[C@H](CCCNC(=N)N)NC(=O)[C@H](Cc2c[nH]cn2)NC(=O)[C@H](CCC(=O)O)NC(=O)CNC(=O)[C@H](Cc2c[nH]c3ccccc23)NC(=O)[C@H](CC(=O)O)NC(=O)[C@H](CCC(N)=O)NC(=O)[C@H](Cc2cn(C)c3ccccc23)NC1=O [Compound 85] (Ac-EFCI[Trp(1-Me)]QDWGEHRCES-NH2; disulfide 3-13) | < 100 |  |  |
